This assay has as its target cloned human NR1/NR2B ion channels (Homo sapiens (Human), UniProt Q05586+Q13224). The assay is described as follows: HNR2BC: effects of test articles on cloned human NR1/NR2B ion channels expressed in mammalian cells (FLIPR calcium flux). It is filed as cell-based. As to conditions: Table 5. Here is the method:
HNR2BC: Effects of Test Articles on Cloned Human NR1/NR2B Ion Channels Expressed in Mammalian Cells
NMDA receptors are ion channels that are highly permeable to Ca^2+ ions, rendering it possible to monitor NMDA receptor function using cell-based calcium flux assay. In this assay, co-agonists glutamate and glycine are added to cells heterologously expressing human GluN1/GluN2B NMDA receptors to initiate cellular Ca^2+ influx. The time course of the changes in intracellular calcium is measured using a fluorescent dye and a FLIPR (Fluorometric Imaging Plate Reader) device.
Twenty four hours before measurements, the expression of the NMDA receptors in the stable cell line is induced with Tet-On inducible system in the presence of a non-selective NMDA receptor blocker. On the day of the experiment, cell culture media is carefully washed and the cells are loaded with Calcium 5 Dye Kit (Molecular Devices) in dye loading buffer containing 137 mM NaCl, 4 mM KCl, 2 mM CaCl2, 0.5 mM MgCl2, 10 mM HEPES and 5 mM D-glucose; pH 7.4. After 1 h incubation at the room temperature, the dye is washed away with the assay buffer (137 mM NaCl, 4 mM KCl, 2 mM CaCl2, 0.01 mM EDTA, 10 mM HEPES and 5 mM D-glucose; pH 7.4) In the FLIPR TETRA reader, various concentrations of the test compounds are added to the cells for 5 min while fluorescence is monitored to detect potential agonist activity. Next, co-agonists, glutamate and glycine are added for another 5 minutes. The concentration of glutamate corresponding to ˜EC80 is used to maximize the assay's signal window and ability to detect NMDA receptor antagonists and negative allosteric modulators. A saturating concentration (10 μM) of glycine is also present in the assay. […] The fluorescent signal in the presence of test compounds is quantified and normalized to the signal defined by the appropriate control wells.
In general terms: Calcium assays in cells follow changes in intracellular calcium, usually with a dye or a luminescent sensor.

[1] abbreviates: cloned human NR1/NR2B ion channels.

Experimental findings from patent US10377753B2, “Substituted 4-azaindoles and their use as GluN2B receptor modulators” (Janssen Pharmaceutica NV, priority 2015, dated 2019) are described below.

SMILES strings stand for the structures. Structures can show the parent of a compound that is named as a salt.

Chain of cloned human NR1/NR2B ion channels (Q13224 27-1484, other chains not shown): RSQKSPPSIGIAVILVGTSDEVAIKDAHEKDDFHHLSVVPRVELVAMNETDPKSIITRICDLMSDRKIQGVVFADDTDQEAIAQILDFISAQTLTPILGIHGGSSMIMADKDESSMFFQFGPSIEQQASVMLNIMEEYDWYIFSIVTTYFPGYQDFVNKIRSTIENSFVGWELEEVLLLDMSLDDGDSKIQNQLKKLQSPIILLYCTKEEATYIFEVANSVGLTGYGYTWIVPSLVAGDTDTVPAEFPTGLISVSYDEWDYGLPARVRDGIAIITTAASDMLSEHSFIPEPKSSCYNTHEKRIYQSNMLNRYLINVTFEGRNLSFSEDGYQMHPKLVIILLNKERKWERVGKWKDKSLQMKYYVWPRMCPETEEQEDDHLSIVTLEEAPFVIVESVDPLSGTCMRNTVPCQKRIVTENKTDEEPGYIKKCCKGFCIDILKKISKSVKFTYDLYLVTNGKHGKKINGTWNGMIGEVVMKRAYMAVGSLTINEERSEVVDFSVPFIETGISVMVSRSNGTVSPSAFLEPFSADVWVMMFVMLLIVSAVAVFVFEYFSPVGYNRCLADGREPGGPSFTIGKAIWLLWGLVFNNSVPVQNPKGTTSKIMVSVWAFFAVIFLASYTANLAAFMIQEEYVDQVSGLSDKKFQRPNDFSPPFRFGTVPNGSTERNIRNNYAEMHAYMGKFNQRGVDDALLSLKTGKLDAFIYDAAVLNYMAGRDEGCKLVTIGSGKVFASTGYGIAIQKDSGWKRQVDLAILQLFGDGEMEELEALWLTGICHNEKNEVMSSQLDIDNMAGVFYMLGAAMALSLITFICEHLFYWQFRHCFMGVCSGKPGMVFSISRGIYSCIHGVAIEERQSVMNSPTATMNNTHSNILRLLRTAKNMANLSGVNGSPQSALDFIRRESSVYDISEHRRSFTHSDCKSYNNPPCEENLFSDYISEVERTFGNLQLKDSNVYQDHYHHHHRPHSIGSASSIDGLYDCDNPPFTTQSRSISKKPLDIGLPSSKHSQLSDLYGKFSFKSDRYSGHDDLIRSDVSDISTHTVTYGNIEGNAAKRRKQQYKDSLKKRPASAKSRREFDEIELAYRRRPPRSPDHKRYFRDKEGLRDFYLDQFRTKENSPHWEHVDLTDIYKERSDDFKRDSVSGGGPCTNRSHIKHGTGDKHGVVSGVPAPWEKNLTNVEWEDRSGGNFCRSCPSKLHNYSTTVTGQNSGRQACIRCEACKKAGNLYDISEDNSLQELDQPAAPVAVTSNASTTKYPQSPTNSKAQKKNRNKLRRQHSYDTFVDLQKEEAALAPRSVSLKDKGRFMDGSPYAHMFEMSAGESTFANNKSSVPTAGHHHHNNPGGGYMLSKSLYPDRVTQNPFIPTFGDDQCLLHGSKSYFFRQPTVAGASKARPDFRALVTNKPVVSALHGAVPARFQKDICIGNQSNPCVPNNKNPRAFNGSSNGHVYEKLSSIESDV

The term IC50 denotes the concentration at which inhibition is half-maximal. `O=C(Cn1ccc2ncc(-c3cccc(F)c3)cc21)NC1CC1` [Example 76, N-Cyclopropyl-2-[6-(3-fluorophenyl)pyrrolo[3,2-b]pyridin-1-yl]acetamide]: the IC50 (cloned human NR1/NR2B) is 1000 nM.

Turning to `CN(C)C(=O)Cn1ccc2ncc(-c3cc(F)c(F)c(F)c3)cc21` [Example 375, N,N-Dimethyl-2-[6-(3,4,5-trifluorophenyl)pyrrolo[3,2-b]pyridin-1-yl]acetamide], under setting [1], the IC50 was 12.6 nM.

Regarding `Cc1ccc(-c2cnc3ccn(CC(=O)N4CCCC4)c3c2)cc1` [Example 82, 2-[6-(p-Tolyl)pyrrolo[3,2-b]pyridin-1-yl]-1-pyrrolidin-1-yl-ethanone], the IC50 (cloned human NR1/NR2B) was 63.1 nM.

Turning to `O=C(Cn1cc(F)c2ncc(-c3cccc(Cl)c3F)cc21)N1CC(F)C1` [Example 490, 2-[6-(3-Chloro-2-fluoro-phenyl)-3-fluoro-pyrrolo[3,2-b]pyridin-1-yl]-1-(3-fluoroazetidin-1-yl)ethanone], the IC50 under setting [1] is 20 nM.

As for `Cc1cn(CC(=O)N2CC(F)C2)c2cc(-c3cc(F)cc(F)c3)cnc12` [Example 635, 2-[6-(3,5-Difluorophenyl)-3-methyl-pyrrolo[3,2-b]pyridin-1-yl]-1-(3-fluoroazetidin-1-yl)ethanone], under setting [1], the IC50 is 316 nM.

Consider `O=C(Cn1ccc2ncc(-c3ccc(F)cc3)cc21)NCCF` [Example 233, N-(2-Fluoroethyl)-2-[6-(4-fluorophenyl)pyrrolo[3,2-b]pyridin-1-yl]acetamide], for which the IC50 (cloned human NR1/NR2B) was 15800 nM.

Regarding `O=C(Cn1ccc2ncc(-c3cccc(C(F)(F)F)n3)cc21)N1CCC1` [Example 362, 1-(Azetidin-1-yl)-2-[6-[6-(trifluoromethyl)-2-pyridyl]pyrrolo[3,2-b]pyridin-1-yl]ethanone], for the setting “cloned human NR1/NR2B”, the IC50 was 31.6 nM.

Consider `O=C(Cn1ccc2ncc(-c3ccc(F)cc3)cc21)C1CCC1` [Example 365, 1-Cyclobutyl-2-[6-(4-fluorophenyl)pyrrolo[3,2-b]pyridin-1-yl]ethanone], for which, where the note is “cloned human NR1/NR2B”, the 50% inhibitory concentration (IC50) was 20 nM.

`O=C(Cn1ccc2ncc(-c3ccc(Cl)s3)cc21)N1CCCC1` [Example 287, 2-[6-(5-Chloro-2-thienyl)pyrrolo[3,2-b]pyridin-1-yl]-1-pyrrolidin-1-yl-ethanone]: the IC50 (cloned human NR1/NR2B) was 631 nM.

With `Cc1cc(F)ccc1-c1cnc2ccn(CC(=O)N3CC(F)C3)c2c1` [Example 264, 1-(3-Fluoroazetidin-1-yl)-2-[6-(4-fluoro-2-methyl-phenyl)pyrrolo[3,2-b]pyridin-1-yl]ethanone trifluoroacetate salt], for the setting “cloned human NR1/NR2B”, the IC50 was 63.1 nM.

As for `CN(C)C(=O)Cn1cc(F)c2ncc(-c3cccc(C(F)(F)F)c3F)cc21` [Example 500, 2-[3-Fluoro-6-[2-fluoro-3-(trifluoromethyl)phenyl]pyrrolo[3,2-b]pyridin-1-yl]-N,N-dimethyl-acetamide], the IC50 under setting [1] was 31.6 nM.

As for `O=C(Cn1cc(F)c2ncc(-c3cccc(C(F)(F)F)c3F)cc21)N1CCC1` [Example 476, 1-(Azetidin-1-yl)-2-[3-fluoro-6-[2-fluoro-3-(trifluoromethyl)phenyl]pyrrolo[3,2-b]pyridin-1-yl]ethanone], under setting [1], the IC50 is 50.1 nM.

Turning to `Cc1c(F)ccc(-c2cnc3c(C)cn(CC(=O)N4CCCC4)c3c2)c1F` [Example 624, 2-[6-(2,4-Difluoro-3-methyl-phenyl)-3-methyl-pyrrolo[3,2-b]pyridin-1-yl]-1-pyrrolidin-1-yl-ethanone], the IC50 under setting [1] is 79.4 nM.

As for `CN(C)C(=O)Cn1cc(Cl)c2ncc(-c3cccc(C(F)(F)F)n3)cc21` [Example 601, 2-[3-Chloro-6-[6-(trifluoromethyl)-2-pyridyl]pyrrolo[3,2-b]pyridin-1-yl]-N,N-dimethyl-acetamide], the IC50 under setting [1] was 126 nM.

As to `CN(C)C(=O)Cn1ccc2ncc(-c3ccc(F)c(F)c3F)cc21` [Example 437, N,N-Dimethyl-2-[6-(2,3,4-trifluorophenyl)pyrrolo[3,2-b]pyridin-1-yl]acetamide], under setting [1], the IC50 was 316 nM.

Turning to `Cc1cn(CC(=O)N(C)C)c2cc(-c3ccc(F)cc3)cnc12` [Example 558, 2-[6-(4-Fluorophenyl)-3-methyl-pyrrolo[3,2-b]pyridin-1-yl]-N,N-dimethyl-acetamide], under setting [1], the IC50 was 79.4 nM.

`CC(C)C(=O)Cn1cc(F)c2ncc(-c3cccc(C(F)F)c3)cc21` [Example 342, 1-[6-[3-(Difluoromethyl)phenyl]-3-fluoro-pyrrolo[3,2-b]pyridin-1-yl]-3-methyl-butan-2-one]: the 50% inhibitory concentration (IC50) (cloned human NR1/NR2B) was 50.1 nM.

In the case of `Cc1c(F)ccc(-c2cnc3c(C)cn(CC(=O)N(C)C)c3c2)c1F` [Example 622, 2-[6-(2,4-Difluoro-3-methyl-phenyl)-3-methyl-pyrrolo[3,2-b]pyridin-1-yl]-N,N-dimethyl-acetamide], under setting [1], the half-maximal inhibitory concentration (IC50) was 100 nM.

Regarding `Cc1cc(-c2cnc3ccn(CC(=O)N4CCC(CF)CC4)c3c2)ccc1F` [Example 192, 2-[6-(4-Fluoro-3-methyl-phenyl)pyrrolo[3,2-b]pyridin-1-yl]-1-[4-(fluoromethyl)-1-piperidyl]ethanone trifluoroacetate salt], where the note is “cloned human NR1/NR2B”, the IC50 is 79.4 nM.

Regarding `O=C(Cn1cc(F)c2ncc(-c3ccc(F)cc3)cc21)C1CC1` [Example 319, 1-Cyclopropyl-2-[3-fluoro-6-(4-fluorophenyl)pyrrolo[3,2-b]pyridin-1-yl]ethanone], the 50% inhibitory concentration (IC50) (cloned human NR1/NR2B) is 20 nM.

Turning to `O=C(Cn1cc(F)c2ncc(-c3cccs3)cc21)N1CC(F)C1` [Example 395, 1-(3-Fluoroazetidin-1-yl)-2-[3-fluoro-6-(2-thienyl)pyrrolo[3,2-b]pyridin-1-yl]ethanone trifluoroacetate salt], the IC50 under setting [1] was 50.1 nM.

Turning to `O=C(Cn1cc(Cl)c2ncc(-c3cccc(C(F)(F)F)c3F)cc21)N1CC(F)C1` [Example 538, 2-[3-Chloro-6-[2-fluoro-3-(trifluoromethyl)phenyl]pyrrolo[3,2-b]pyridin-1-yl]-1-(3-fluoroazetidin-1-yl)ethanone], the IC50 under setting [1] was 79.4 nM.

Turning to `O=C(Cn1cc(F)c2ncc(-c3cc(F)cc(F)c3)cc21)N1CCC1` [Example 474, 1-(Azetidin-1-yl)-2-[6-(3,5-difluorophenyl)-3-fluoro-pyrrolo[3,2-b]pyridin-1-yl]ethanone], the IC50 under setting [1] is 31.6 nM.

For the compound `O=C(Cn1ccc2ncc(-c3ccccc3)cc21)N1CCC1` [Example 354, 1-(Azetidin-1-yl)-2-(6-phenylpyrrolo[3,2-b]pyridin-1-yl)ethanone], the 50% inhibitory concentration (IC50) (cloned human NR1/NR2B) was 31.6 nM.

For the compound `Cc1ccc(-c2cnc3c(C)cn(CC(=O)N4CCC4)c3c2)s1` [Example 633, 1-(Azetidin-1-yl)-2-[3-methyl-6-(5-methyl-2-thienyl)pyrrolo[3,2-b]pyridin-1-yl]ethanone], the IC50 under setting [1] is 50.1 nM.

As to `CN(C)C(=O)Cn1ccc2ncc(-c3cccs3)cc21` [Example 400, N,N-Dimethyl-2-[6-(2-thienyl)pyrrolo[3,2-b]pyridin-1-yl]acetamide], the IC50 under setting [1] was 501 nM.

Turning to `O=C(Cn1ccc2ncc(-c3ccc(F)c(C(F)(F)F)c3)cc21)N1CCOCC1` [Example 108, 2-[6-[4-Fluoro-3-(trifluoromethyl)phenyl]pyrrolo[3,2-b]pyridin-1-yl]-1-morpholino-ethanone], the IC50 (cloned human NR1/NR2B) is 126 nM.

One may read the pIC50 as −log10 of the IC50, conventionally taken in molar units. As for `Cc1csc(-c2cnc3ccn(Cc4ccc(C(F)(F)F)o4)c3c2)c1` [Example 137, 6-(4-Methyl-2-thienyl)-1-[[5-(trifluoromethyl)-2-furyl]methyl]pyrrolo[3,2-b]pyridine], for the setting “cloned human NR1/NR2B”, the pIC50 was 7.7.
